Article PMC9225715, “Development of PD3 and PD3-B for PDEδ inhibition to modulate KRAS activity” (Journal of Enzyme Inhibition and Medicinal Chemistry, 2022)

What was measured:
PDEδ [1] = target: T1, PDEδ (Homo sapiens, UniProt O43924); experiment: FP-based competition binding assay using excess deltarasin
T1 construct: made in house; host or cells: E. coli BL21(DE3)
Description: (§1) Figure 3. Binding affinities of PDs measured by fluorescence polarisation. (A) Representative binding curve of PDs (PD3) titrated with PDEδ. The FP value was measured in PBS buffer (pH 7.2) containing 8 concentrations (0, 0.5, 1, 2, 4, 8, 16 and 32 μM) of PDEδ mixed with 0.5 μM PDs. Ex: 440 nm, Em: 526 nm; (B) Kd value and half-life of each compound; (C, D) Kinetic trace of PD3 and PD7 in the competition assay. PD3 was shown as a compound with the longest retention time (slow dissociation), whereas PD7 was shown as a compound with the shortest retention time (fast dissociation). The half-life was obtained by a competition binding assay using excess deltarasin. The optimal concentration of PDEδ for the competition assay was determined using the Kd value and PD concentration (0.5 μM) for making more than 68% of the binding complex. Ex: 430 nm, Em: 520 nm. TEXT PRINTED IN THE PICTURE: (A) PD3: Best-fit values Bmax: 261.7; Best-fit values Kd: 0.4991; Std. Error Bmax: 17.98; Std. […] Error Bmax 17.98 (last digit 8 or 6) and Std. Error Kd 0.1956 (5 and 6 not certain) / Panels C and D: k and half-life are printed without a label of their own; assigned to PD3 and PD7 from the panel legends (PDEδ+PD3+Del, PDEδ+PD7+Del)
To confirm that the PD compound occupies the same farnesylation binding site as deltarasin in PDEδ and to exclude the possibility that the FP signal resulted from non-specific hydrophobic interactions, we carried out a FP-based competition assay. PDs (0.5 µM) were incubated with the purified PDEδ protein for 2 h to ensure complete binding between the compound and the protein. Then, deltarasin was added to replace the PD compound in the prenyl binding pocket of PDEδ, which decreased the FP due to the free rotation of the released PD compound. As shown in Figure 3(B), the reverse correlation between Kd values and half-lives was observed (Figure 3(B) and Table 1). […] The rate constants and half-lives were measured only when the increased concentration of deltarasin produced concentration-independent kinetic parameters, which reflects complete displacement of the binding site with the deltarasin. The kinetic trace was fit to a single exponential decay to generate the dissociation rate constant and half-life. Given that the Kd value is a ratio of koff/kon in a simple bimolecular binding model, the measured half-life and Kd are not always matched due to the contribution from the association rate constant. Figure 3(C) (PD3) and 3 D (PD7) show a representative kinetic trace obtained in the competition assay.
Deltarasin, a well-known PDEδ inhibitor, was purchased from Chemietek (Indianapolis, IN) for the competition assay. Assay buffer and the plate were the same as used in fluorescence polarisation assay. The optimal concentration of PDEδ was determined based on the Kd values and ligand concentration (0.5 µM) to ensure the formation of ligand-protein complex. The mixture of PDEδ and compounds were incubated for 2 h at 4 °C. After adding deltarasin to the mixture, FP was immediately recorded by SpectraMax M5 microplate reader (Molecular Devices, San Jose, CA) with excitation at 430 nm and emission at 520 nm. In SpectraMax M5 microplate reader, single excitation and emission wavelengths need to be used for testing all compounds. Therefore, Ex 430/Em 520 was used for competition binding assay. The selected ex/em wavelengths have only a difference of less than 10 nm from the maximum wavelengths, and there was no critical issue for conducting assay. The kinetic trace was fit to a single exponential decay to generate dissociation rate constant and half-life.

PDEδ [2] = target: T1, PDEδ; experiment: Fluorescence polarisation (FP)-based binding assay; details: 0.5 µM PD titrated with PDEδ, PBS pH 7.2; mean ± SD of three independent experiments; read-out: Kd value
Description: To evaluate the binding affinities of PDs to PDEδ, we also carried out a fluorescence polarisation (FP)-based binding assay after incubation of PDs with PDEδ. […] In the presence of 0.5 µM PD compounds, the polarisation value (mP value) increased following treatment with purified PDEδ in a dose-dependent manner until treatment with excess PDEδ induced saturation of binding. Among the tested compounds, 8 compounds were selected for further evaluation and SAR analysis. The binding curves for the selected 8 compounds are shown with their Kd values in Supplemental Figure S3.
as §1
PDEδ was diluted to make a series of two-fold dilutions with a starting concentration of 32 µM. The diluted solution was mixed with PBS buffer [137 mM NaCl, 2.7 mM KCl, 10 mM Na2HPO4, 2 mM KH2PO4 (pH 7.2)] and then the mixture was loaded on a 96 well black plate (SPL life Science, Gyeonggi-do, Republic of Korea). Compounds were transferred to the wells of assay plate and the final concentration of compounds was fixed to 0.5 µM. After the addition of the compound, the assay plates were incubated for 2 h at 4 °C. FP values were detected by SpectraMax M5 microplate reader (Molecular Devices, San Jose, CA) at the maximum absorption and emission wavelengths of PD compounds in assay buffer. Kd values were determined by previously reported method.

PANC-1 cells = experiment: Immunofluorescence staining of RAS localisation; assay type: cell-based, human; details: 18 h, anti-pan RAS antibody, PD3 10 µM, deltarasin 2, 5, 10 µM
Excerpt: Finally, we investigated whether PD3 changes KRAS localisation by inhibiting the interaction of KRAS with PDEδ in human pancreatic cancer cells. PDEδ binds the farnesylated RAS proteins and stabilises them[19]. Therefore, PDEδ activity leads to the accumulation of RAS at the plasma membrane (PM); conversely, downmodulation of PDEδ enhances RAS diffusion in the cytoplasm. To confirm the effect of PD3 on the relocalization of RAS, we carried out immunofluorescence staining of PANC-1 cells with an anti-RAS antibody (Figure 6). […] Conversely, in the DMSO-treated control group, RAS was mainly localised in the PM of PANC-1 cells. […] It is supposed that PD3 can induce changes in RAS localisation from the plasma membrane by interrupting the protein–protein interaction of KRAS-PDEδ.
Figure 6. Immunofluorescence of PANC-1 cells with an anti-Pan-RAS antibody (red). DMSO was used as a negative control, and deltarasin was used as a positive control. Ex: 633 nm, Em: ≥638 nm. The scale bar represents 20 µm.
PANC-1 cells were seeded with cover slip in a 6-well cell culture plate (SPL life Science, Gyeonggi-do, Republic of Korea) and incubated for 24 h under 37 °C and 5% CO2 prior to the experiment. […] The fluorescence images were detected by confocal microscope (TCS-SP8 confocal laser scanning microscope, Leica, Germany). Fluorescence signal was obtained by excitation at 633 nm and emission at ≥638 nm.

PDEδ [3] = target: T1, PDEδ; experiment: Fluorescence measurement after incubation with recombinant PDEδ; assay type: binding; details: 2 µM PD + 2 µM PDEδ, 20 mM Tris buffer pH 7.5, Ex 280 nm
Description: With the structural rationale for the binding to PDEδ from the molecular docking studies, we measured the fluorescence responses of the PDs after incubation with recombinant PDEδ proteins to confirm the binding of PDs to PDEδ. We envisioned that the hydrophobic environment of the prenyl binding pocket of PDEδ, as depicted in Figure 1(C), could enhance the fluorescent signal due to the solvatochromic characteristics of IQ scaffold. In addition, tryptophan residues near the binding site of PDEδ and the fluorophore of PDs could act as a fluorescence resonance energy transfer (FRET) pair. […] All recoded spectra of PDs are depicted in Supplemental Figure S1. To compare the binding abilities of PD derivatives to the target protein, same concentration (2 µM) of PD compound was treated and then fluorescence intensity was measured in Spectrofluorometer FP-6500.
The fluorescence changes were measured to determine the interaction between PD compounds and PDEδ protein. The fluorescence spectra were obtained under Tris buffer [20 mM Tris-HCl (pH 7.5), 100 mM NaCl] at 20 °C. The concentration of PDEδ was 2 µM. After the addition of 2 µM PD compound, the mixture was gently inverted 3 times and then incubated for 1 min. The emission spectra were recorded on Spectrofluorometer FP-6500 (JASCO, Tokyo, Japan) at Ex 280 nm. The band width was 3 nm for excitation and 5 nm for emission.

[4] = retention in PDEδ on displacement by excess deltarasin, 0.5 µM PD, mean ± SD of three independent experiments

Row | SMILES | Half-life (PDEδ [1]; representative kinetic trace, single exponential decay) [min] | koff (PDEδ [1]; representative kinetic trace, single exponential decay, read-out: dissociation rate constant k (converted)) [s⁻¹] | Half-life (PDEδ [1]; [4]) [min] | Kd (PDEδ [2]) [nM] | RAS localisation at the plasma membrane (PM) (PANC-1 cells) | Fluorescence response upon incubation with PDEδ (PDEδ [3])
1 | c1ccc2c(-c3nc4ccccc4c4cc5ccccn5c34)cccc2c1 [PD7] | 13 | 0.0009 | 14 ± 1 | 1540 ± 180 |  | 
2 | c1ccc(-c2nc3ccccc3c3cc4ccccn4c23)cc1 [PD4] |  |  | 31 ± 9 | 505 ± 33 |  | 
3 | c1ccc(Cn2c(-c3ccc(OC[C@H](C4CCNCC4)n4c(-c5ccccc5)nc5ccccc54)cc3)nc3ccccc32)cc1 [deltarasin, reference compound] |  |  |  |  | reduced the amount of RAS at the PM | 
4 | Brc1ccc(-c2nc3ccccc3c3cc4ccccn4c23)cc1 [PD1] |  |  | 36 ± 2 | 284 ± 140 |  | 
5 | c1csc(-c2nc3ccccc3c3cc4ccccn4c23)c1 [PD25] |  |  | 26 ± 3 | 425 ± 75 |  | 

More lines, in order of falling Kd (PDEδ [2]), values ahead:

Row | Half-life (PDEδ [1]; representative kinetic trace, single exponential decay) [min] | koff (PDEδ [1]; representative kinetic trace, single exponential decay, read-out: dissociation rate constant k (converted)) [s⁻¹] | Half-life (PDEδ [1]; [4]) [min] | Kd (PDEδ [2]) [nM] | SMILES | RAS localisation at the plasma membrane (PM) (PANC-1 cells) | Fluorescence response upon incubation with PDEδ (PDEδ [3])
6 |  |  | 19 ± 3 | 1280 ± 261 | COc1ccc(-c2nc3ccccc3c3cc4ccccn4c23)cc1OC [PD6] |  | exceeded the maximum detection limit of Spectrofluorometer
7 |  |  | 20 ± 4 | 720 ± 85 | COc1ccc(-c2nc3ccccc3c3cc4ccccn4c23)cc1 [PD5] |  | 
8 |  |  | 35 ± 7 | 643 ± 128 | c1ccc2cc(-c3nc4ccccc4c4cc5ccccn5c34)ccc2c1 [PD8] |  | 
